# Experimental data from patent US20080221132A1, “Multi-Functional Small Molecules as Anti-Proliferative Agents” (priority 2006, published 2008).
# Experiments:
# [1] = test system: Colon_HCT116 (HCT116, colon cancer); test: Cell proliferation assay (ATPlite), HCT116; assay type: cell-based; conditions: Homo sapiens, HCT-116; TABLE C; 72 hours, 0.5% fetal bovine serum, ATP content; read-out: IC50 grading, Colon_HCT116
# Description: (§1) A representative number of compounds were assayed against several different cell lines using the cell proliferation assay:
# (§2) Cell Proliferation Assay:
# Cancer cell lines were plated at 5,000 to 10,000 per well in 96-well flatted bottomed plates with various concentration of compounds. […] Growth inhibition was accessed by adenosine triphosphate (ATP) content assay using Perkin Elmer ATPlite kit. ATPlite is an ATP monitoring system based on firefly luciferase. Briefly, 25 μl of mammalian cell lysis solution was added to 50 μl of phenol red-free culture medium per well to lyse the cells and stabilize the ATP. 25 μl of substrate solution was then added to the well and subsequently the luminescence was measured.
# Pancreas_PANC1 = test: Cell proliferation assay (ATPlite), PANC1; assay type: cell-based; conditions: Homo sapiens, PANC-1; TABLE C; 72 hours, 0.5% fetal bovine serum, ATP content; read-out: IC50 grading, Pancreas_PANC1
# Description: as §1, §2
# (§3) Cancer cell lines were plated at 5,000 to 10,000 per well in 96-well flatted bottomed plates with various concentration of compounds. The cells were incubated with compounds for 72 hours in the presence of 0.5% of fetal bovine serum. Growth inhibition was accessed by adenosine triphosphate (ATP) content assay using Perkin Elmer ATPlite kit. ATPlite is an ATP monitoring system based on firefly luciferase. Briefly, 25 μl of mammalian cell lysis solution was added to 50 μl of phenol red-free culture medium per well to lyse the cells and stabilize the ATP. 25 μl of substrate solution was then added to the well and subsequently the luminescence was measured.
# Pancreas_CFPAC = test: Cell proliferation assay (ATPlite), CFPAC; assay type: cell-based; conditions: TABLE C; 72 hours, 0.5% fetal bovine serum, ATP content; read-out: IC50 grading, Pancreas_CFPAC
# Description: as §1, §2, §3
# Pancreas_MiaPaCa2 = test: Cell proliferation assay (ATPlite), MiaPaCa2; assay type: cell-based; conditions: Homo sapiens, MIA PaCa-2; TABLE C; 72 hours, 0.5% fetal bovine serum, ATP content; read-out: IC50 grading, Pancreas_MiaPaCa2
# Description: as §1, §2, §3
# Pancreas_BxPC3 = test: Cell proliferation assay (ATPlite), BxPC3; assay type: cell-based; conditions: Homo sapiens, BXPC-3; TABLE C; 72 hours, 0.5% fetal bovine serum, ATP content; read-out: IC50 grading, Pancreas_BxPC3
# Description: as §1, §2, §3
# Pancreas_HPAC = test: Cell proliferation assay (ATPlite), HPAC; assay type: cell-based; conditions: Homo sapiens, TABLE C, 72 hours, 0.5% fetal bovine serum, ATP content, read-out: IC50 grading, Pancreas_HPAC
# Description: as §1, §2, §3
# [2] = test system: HDAC (HeLa nuclear extract); test: HDAC fluorimetric assay kit (AK-500, Biomol), HeLa nuclear extract; assay type: biochemical; conditions: TABLE 1-B, Section 1 compounds; read-out: HDAC (IC50 grading)
# Description: (§4) HDAC inhibitors were screened using an HDAC fluorimetric assay kit (AK-500, Biomol, Plymouth Meeting, Pa.). […] Each assay was setup as follows: Defrosted all kit components and kept on ice until use. […] Prepared dilutions of Trichostatin A (TSA, positive control) and tested compounds in assay buffer (5× of final concentration). Diluted Fluor de Lys™ Substrate in assay buffer to 100 uM (50 fold=2× final). Diluted Fluor de Lys™ developer concentrate 20-fold (e.g. 50 μl plus 950 μl Assay Buffer) in cold assay buffer. Second, diluted the 0.2 mM Trichostatin A 100-fold in the 1× Developer (e.g. 10 μl in 1 ml; final Trichostatin A concentration in the 1× Developer=2 μM; final concentration after addition to HDAC/Substrate reaction=1 μM). Added Assay buffer, diluted trichostatin A or test inhibitor to appropriate wells of the microtiter plate. Added diluted HeLa extract or other HDAC sample to all wells except for negative controls.
# HDAC inhibitors were screened using an HDAC fluorimetric assay kit (AK-500, Biomol, Plymouth Meeting, Pa.).
# Each assay was setup as follows: Defrosted all kit components and kept on ice until use. […] Prepared dilutions of Trichostatin A (TSA, positive control) and tested compounds in assay buffer (5× of final concentration). Diluted Fluor de Lys™ Substrate in assay buffer to 100 uM (50 fold=2× final). Diluted Fluor de Lys™ developer concentrate 20-fold (e.g. 50 μl plus 950 μl Assay Buffer) in cold assay buffer. Second, diluted the 0.2 mM Trichostatin A 100-fold in the 1× Developer (e.g. 10 μl in 1 ml; final Trichostatin A concentration in the 1× Developer=2 μM; final concentration after addition to HDAC/Substrate reaction=1 μM). Added Assay buffer, diluted trichostatin A or test inhibitor to appropriate wells of the microtiter plate. Added diluted HeLa extract or other HDAC sample to all wells except for negative controls.
# HDAC inhibitors is screened using an HDAC fluorimetric assay kit (AK-500, Biomol, Plymouth Meeting, Pa.).
# Each assay is setup as follows: Defrost all kit components and kept on ice until use. […] Prepare dilutions of Trichostatin A (TSA, positive control) and tested compounds in assay buffer (5× of final concentration). Dilute Fluor de Lys™ Substrate in assay buffer to 100 uM (50 fold=2× final). Dilute Fluor de Lys™ developer concentrate 20-fold (e.g. 50 μl plus 950 μl Assay Buffer) in cold assay buffer. Second, dilute the 0.2 mM Trichostatin A 100-fold in the 1× Developer (e.g. 10 μl in 1 ml; final Trichostatin A concentration in the 1× Developer=2 μM; final concentration after addition to HDAC/Substrate reaction=1 μM). Add Assay buffer, dilute trichostatin A or test inhibitor to appropriate wells of the microtiter plate. Add diluted HeLa extract or other HDAC sample to all wells except for negative controls.
# as §4, with “assay buffer)” for “Assay Buffer)”, “assay” for “Assay”
# CDK2/cyclinE: 0.5 nM CDK2/cyclinE and 5 μM Histon H1 are in the reaction buffer plus 1 μM ATP and 1% DMSO final. Incubate for 2 hours at room temperature. […] Incubate for 2 hours at room temperature.
SMILES,melting point,IC50 (Pancreas_PANC1) [µM],IC50 (Pancreas_MiaPaCa2) [µM],IC50 (Pancreas_BxPC3) [µM],IC50 [2] [µM],IC50 (Pancreas_CFPAC) [µM],IC50 (Pancreas_HPAC) [µM],other results
"Nc1ncnc2c1nc(Sc1cc3c(cc1Br)OCO3)n2CC(=O)NO [Compound 1, 2-(6-amino-8-(6-bromobenzo[d][1,3]dioxol-5-ylthio)-9H-purin-9-yl)-N-hydroxyacetamide]",230 °C (dec.),,,,,,,
"CC(C)(C)c1cnc(CSc2cnc(NC(=O)C3CCN(CCCC(=O)NO)CC3)s2)o1 [Compound 1, N-(5-((5-tert-butyloxazol-2-yl)methylthio)thiazol-2-yl)-1-(4-(hydroxyamino)-4-oxobutyl)piperidine-4-carboxamide]",176 to 180 °C,,,,,,,
"CC(C)(C)c1cnc(CSc2cnc(NC(=O)C3CCN(CCCCCC(=O)NO)CC3)s2)o1 [Compound 3, N-(5-((5-tert-butyloxazol-2-yl)methylthio)thiazol-2-yl)-1-(6-(hydroxyamino)-6-oxohexyl)piperidine-4-carboxamide]",127 to 130 °C,,,,,,,
"Cc1[nH]c(/C=C2\C(=O)Nc3ccc(F)cc32)c(C)c1C(=O)NCCCCCC(=O)NO [Compound 4, N-(5-(hydroxycarbamoyl)pentyl)5-((Z)-(5-fluoro-2-oxoindolin-3-ylidene)methyl)-2,4-dimethyl-1H-pyrrole-3-carboxamide]",209.7 °C (dec.),,,,,,,
"CN(C)CC[C@H](CSc1ccccc1)Nc1ccc(S(=O)(=O)NC(=O)c2ccc(N3CCN(Cc4ccccc4-c4ccc(Cl)cc4)CC3)c(NC(=O)CCCCC(=O)NO)c2)cc1[N+](=O)[O-] [Compound 8, (R)—N^1-(2-(4-((4′-Chlorobiphenyl-2-yl)methyl)piperazin-1-yl)-5-(4-(4-(dimethylamino)-1-(phenylthio)butan-2-ylamino)-3-nitrophenylsulfonylcarbamoyl)phenyl)-N^6-hydroxyadipamide]",150 °C,,,,,,,
"C[C@@H](Nc1ncnc2[nH]c(-c3ccc(OCC(=O)NO)cc3)cc12)c1ccccc1 [Compound 17, (R)—N-hydroxy-2-(4-(4-(1-phenylethylamino)-7H-pyrrolo[2,3-d]pyrimidin-6-yl)phenoxy)acetamide]",116.8 to 126.8 °C,,,,,,,
O=C(CCCCCCOc1ccc2ncnc(Nc3ccc(F)c(Cl)c3)c2c1)NO [Compound 18],,0.1 to 1,0.1 to 1,0.1 to 1,,0.1 to 1,1 to 10,IC50 [1]: 0.1 to 1 µM
"Cc1nc(NCCCCCCC(=O)NO)cc(Nc2ncc(C(=O)Nc3c(C)cccc3Cl)s2)n1 [Compound 24, N-(2-chloro-6-methylphenyl)-2-(6-(7-(hydroxyamino)-7-oxoheptylamino)-2-methylpyrimidin-4-ylamino)thiazole-5-carboxamide]",150.7 °C (dec.),,,,,,,
"Nc1ccc(C(=O)NCCNC(=O)CCCC(=O)NO)cc1 [Compound 29, N-hydroxy-4-(2-(4-aminobenzamido)-ethylcarbamoyl)butanamide]",158.9 to 159.8 °C,,,,,,,
COc1cc2ncnc(Nc3ccc(F)c(Cl)c3)c2cc1NC(=O)CCCCCCC(=O)NO [Compound 40],,1 to 10,1 to 10,1 to 10,,1 to 10,1 to 10,
COc1cc2ncnc(Nc3ccc(F)c(Cl)c3)c2cc1OCCOc1ccc(/C=C/C(=O)NO)cc1 [Compound 66],,1 to 10,1 to 10,1 to 10,,> 10,1 to 10,
COc1cc2ncnc(Nc3ccc(F)c(Cl)c3)c2cc1OCCCCCC(C(=O)NO)C(C)C (stereo not shown) [Compound 112],,,,,> 10,,,

# Now from value to compound, other results behind:
melting point,IC50 (Pancreas_PANC1) [µM],IC50 (Pancreas_MiaPaCa2) [µM],IC50 (Pancreas_BxPC3) [µM],IC50 [2] [µM],SMILES,IC50 (Pancreas_CFPAC) [µM],IC50 (Pancreas_HPAC) [µM],other results
,1 to 10,1 to 10,1 to 10,,"COCCOc1cc2ncnc(Nc3ccc(F)c(Cl)c3)c2cc1NC(=O)CCCCCCC(=O)NO [Compound 70, N^1-(4-(3-chloro-4-fluorophenylamino)-7-(2-methoxyethoxy)quinazolin-6-yl)-N^8-hydroxyoctanediamide]",1 to 10,> 10,
,> 10,0.1 to 1,1 to 10,,"COc1cc2ncnc(N[C@H](C)c3ccccc3)c2cc1OCCCCCC(=O)NO [Compound 77, (R)—N-hydroxy-6-(7-methoxy-4-(1-phenylethylamino)quinazolin-6-yloxy)-hexanamide]",1 to 10,> 10,
,1 to 10,1 to 10,1 to 10,,"COc1cc2ncnc(N[C@H](C)c3ccccc3)c2cc1OCCCCCCC(=O)NO [Compound 79, (R)—N-hydroxy-7-(7-methoxy-4-(1-phenylethylamino)quinazolin-6-yloxy)heptanamide]",1 to 10,> 10,
,1 to 10,1 to 10,0.1 to 1,,"COc1cc2ncnc(NCc3ccccc3)c2cc1OCCCCCCC(=O)NO [Compound 85, 7-(4-(Benzylamino)-7-methoxyquinazolin-6-yloxy)-N-hydroxyheptanamide]",1 to 10,1 to 10,IC50 [1]: 0.1 to 1 µM
,,,,> 10,COc1cc2ncnc(Nc3ccc(F)c(Cl)c3)c2cc1NC(=O)Nc1ccc(C(=O)NO)cc1 [Compound 94],,,
,,,,0.1 to 1,COc1cc2ncnc(Nc3ccc(F)c(Cl)c3)c2cc1OCCCOc1ccc(C(=O)NO)cc1 [Compound 202],,,
,,,,0.1 to 1,COc1cc2ncnc(Nc3ccc(F)c(Cl)c3)c2cc1OCCCCOc1ccc(C(=O)NO)cc1 [Compound 203],,,
,,,,1 to 10,COc1cc2ncnc(Nc3ccc(F)c(Cl)c3)c2cc1Oc1ccc(C#CCCC(=O)NO)cc1 [Compound 204],,,
,,,,< 0.1,C#Cc1cccc(Nc2ncnc3cc(O)c(OCCCCCCC(=O)NO)cc23)c1 [Compound 207],,,
,,,,< 0.1,C#Cc1cc(Nc2ncnc3cc(O)c(OCCCCCCC(=O)NO)cc23)ccc1O [Compound 208],,,
